# Measured values as given in patent EP0539587A1, “ANTI[…]” (TSUMURA & CO., priority 1991, dated 1992).
# Where a name gives a salt, the structure may show the parent alone.
# Legend:
# [1] = system: human immunodeficiency virus; test: Test of anti-AIDS virus activity using clone H9 cells (p24 antigen in culture supernatant); type: cell-based; conditions: Human immunodeficiency virus 1, 120 h, p24 antigen in culture supernatant after 5 days, read-out: Rate of Inhibition (%)
# Procedure: 1 x 10⁶ clone H9 cells (©T-cells) were placed in individual culture tubes. The serially diluted test drug was then placed in each tube. Roughly 100TCID₅₀ of human immunodeficiency virus (culture supernatant of H9/HTLV-IIIB cells) were then placed in each tube to infect the above-mentioned cells. After incubating the tubes for 1 hour at 37°C in the presence of 5% CO₂, the unabsorbed viral particles and test substance were removed by centrifugal separation (x3000 g, 5 minutes). Moreover, after again centrifugally washing (x3000 g, 5 minutes) the cells with fresh culture liquid, fresh culture liquid was added to each tube to prepare cell suspensions having a concentration of 0.2 x 10⁶ cells per milliliter. 0.5 ml of these cell suspensions were added to each well of a 24 well culture plate containing 0.5 ml of the serially diluted test drug. After incubating this plate for 5 days at 37°C in the presence of 5% CO₂, the amount of p24, which is the human immunodeficiency virus antigen in the culture supernatant, was measured, followed by calculation of the rate of inhibition (%) at the concentrations of the test drug indicated below.
# [2] = target: Human immunodeficiency virus reverse transcriptase (Human immunodeficiency virus type 1 group M subtype B, UniProt P04585); test: Effects on reverse transcriptase activity ([3H]deoxythymidine triphosphate uptake into DNA); type: biochemical; conditions: reverse transcriptase inhibitory activity; 30 minutes at 37°C; polyrA-oligo dT template-primer; read-out: 50% inhibitory concentration (IC50) (converted)
# Procedure: A reaction mixture having the composition indicated below was prepared.
# 50 µl of this reaction mixture was allowed to react for 30 minutes at 37°C.
# Quantitative determination of the reaction product in the form of DNA was performed by measuring the uptake of the radioactivity of [³H]deoxythymidine triphosphate into DNA using ion exchange filter paper, taking that to represent reverse transcriptase inhibitory activity, and calculating the 50% inhibitory concentration (IC₅₀) of the test compound.
smiles,measurement,setting,value
"O=C(O)/C=C(\C(=O)O[C@H]1[C@@H]2OC(=O)c3cc(O)c(O)c(O)c3-c3c(cc(O)c(O)c3O)C(=O)OC[C@H]1O[C@@H](OC(=O)c1cc(O)c(O)c(O)c1)[C@@H]2O)[C@H]1c2c(cc(O)c(O)c2O)C(=O)O[C@@H]1C(=O)O [Specific Example 1, repandusinic acid A monopotassium salt]",inhibition at 0.195 µg/mL,[1]; 0.195 µg/ml,27.8%
same,inhibition at 3.125 µg/mL,[1]; 3.125 µg/ml,66.7%
same,inhibition at 12.5 µg/mL,[1]; 12.5 µg/ml,94.4%
same,IC50,[2],103 nM
